This is an account of results in patent EP4467141A1, “PYRAZOLO-QUINOLINES AS SELECTIVE INHIBITORS OF GENOTOXIC STRESS-INDUCED IKK/NF- KB PATHWAYS FOR CANCER THERAPY” (Max-Delbrück-Centrum für Molekulare Medizin in der …, priority 2023, dated 2024).

A short description of data set [1]: HPLC of media supernatant from U2-OS cell culture (degradation). To be noted: 10µM. It is filed as physicochemical.
In data set [2] the target is T1, DNA-PK (Homo sapiens, UniProt P78527).
T1 construct: purchased Thermo Fisher Scientific
The data set is described as follows: Kinase panel study. To be noted: for inhibition at 1 µM: 1000nM. Type of data set: biochemical. The essentials:
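In vitro, kinase panel; ZLyte or Adapta SOP; single-concentration testing (1 or 10 µM); output = % inhibition, plus IC50 in panel.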

Data set [3] relates to NF-κB subunit p65 phosphorylation (S536). The data set is described as follows: Western blot of p65 phosphorylation (S536) after DNA damage (irradiation or etoposide) in U2-OS cells. Type of data set: cell-based. To be noted: for phosphorylation of p65 at serine 536 after DNA damage: 1-hour pre-treatment, irradiation (IR, 20 Gy), 90 min; for activity in cell-based NF-κB activation assays: 10 µM, p65 phosphorylation and NFKBIA expression after irradiation. The procedure: Fig.1: Identification of inhibitors specific for DNA damage-induced NF-κB activity. (A) Flowchart representing the high-throughput chemical library screening. A screen/counter-screen strategy was used by stimulating NF-κB in U2-OS cells with etoposide (50 µM for 90 min) and hits were counter-screened with TNFα (10 ng/ml for 20 min). Cells were pre-treated with compounds (10 µM) for 1 hour before stimulation, fixed, and percent p65 nuclear translocation measured by fluorescence microscopy. IC50 values were used for final selection. (B) Comparison of mean p65 nuclear translocation following either etoposide or TNFa stimulation after treatment with each counter-screened hit compound. Values were normalized to etoposide or TNFα positive controls. Specific inhibitors (red) of DNA damage-induced NF-κB signaling were defined by setting cut-off criteria (black line). […] (C) IC50 determination for MW01 (left) and MW05 (right) of p65 nuclear translocation, following either etoposide or TNFα treatment. […] IC50 noted with a dotted line. (D) Structures of compounds selected as leads for further analysis, MW01 (5-Hydroxy-10,11-dimethoxy-9H-benzo[c]indolo[3,2,1-ij][1,5]naphthyridin-9-one) and MW05 (3-Amino-7-methoxypyrazolo[3,4-b]quinolin-1-yl)-[3-(dimethylamino)phenyl]methanone). (E) Western blot analysis (top) and quantification (bottom) of NF-κB subunit p65 phosphorylation (S536) following 1-hour pre-treatment with DMSO, MW01 (10 µM), or MW05 (10 µM), in unstimulated, after 90 min irradiation (IR, 20 Gy), or after 20 min TNFα (10 ng/mL) conditions in U2- OS cells. B-actin was used as loading control after. The p-p65 signal was first normalized to β-actin loading control per sample, then each value to DMSO-treated unstimulated to evaluate relative activation of NF-κB. Ns: not significant; ***: p<0.001.
NF-κB was stimulated by DNA damage through either 20 Gy irradiation (IR) and analyzed after 90 minutes or by 10 ng/ml TNFα and analyzed after 20 minutes unless otherwise noted.
All compounds were pre-treated for 1-hour prior to NF-κB stimulation unless otherwise noted.
Cells were collected by scraping and lysed in Baeuerle lysis buffer supplemented with Protease (Thermo Fisher Scientific, 78429) and Phosphatase (Thermo Fisher Scientific, 78420) inhibitors after the appropriate treatment and time point. Proteins were quantified by Bradford assay (Bio-Rad, 5000006) and 20-50 µg of extracted proteins were loaded on 4-20% Protein Gel (Bio-Rad, 4568096) and then transferred onto a PVDF membrane (Bio-Rad, 1620177) using Tris-Glycine buffer with 20% of methanol. Blocking was performed for 1h with 5% not-fat dry milk in PBS 1X. Immunodetection was obtained using primary and secondary antibodies reported in Key Resources Table. The membranes were analyzed by ECL (Thermo Fisher Scientific, 34580) and detected by ChemiDoc XRS+ (Bio-Rad) using ImageLab software (Bio-Rad).

The mark [4] stands for this setting: read-out: Percentage of inhibition.
The mark [5] stands for this setting: 10000nM, read-out: Percentage of inhibition.
Setting [6] is: DNA-PK, compound at 10µM, read-out: % of Inhibition.

Entries after “also recorded” stand apart in the source; their conditions may differ. Read-outs that look alike come from different tables or passages of the source. Where only a bound is given, the exact number is not on record here.

`COc1ccc2c(c1OC)c(=O)n1c3ccc(O)cc3c3ccnc2c31` [MW01, 5-Hydroxy-10,11-dimethoxy-9H-benzo[c]indolo[3,2,1-ij][1,5]naphthyridin-9-one]: the “degradation in cell culture conditions” value in data set [1] is “minimal degradation”. Also, the inhibition at 1 µM in data set [2] (setting [4]) turned out to be 86%. Besides, the inhibition at 10 µM in data set [2] (setting [5]) was determined as 96%. In addition, the “phosphorylation of p65 at serine 536 after DNA damage” value in data set [3] is given as “significantly reduced”.

Regarding `COc1ccc2c(c1)c1ccnc3c4nc(OC)ccc4c(=O)n2c13` [MW01-E6, 5,15-dimethoxy-1,11,14-triazapentacyclo[10.7.1,0^2,7.0^8,^20.0^13,^18]icosa-2(7),3,5,8(20),9,11,13(18),14,16-nonaen-19-one], the inhibition at 10 µM in data set [2] (setting [6]) is 9%. Moreover, the “activity in cell-based NF-κB activation assays” value (shortened to “activity”) in data set [3] was “inactive”.

As to `O=c1c2cc(O)ccc2c2nccc3c4cc(O)ccc4n1c32` [MW01-E10, 5,16-dihydroxy-1,11-diazapentacyclo[10.7.1.0^2,^7.0^8,^20.0^13,^18]icosa-2(7),3,5,8(20),9,11,13(18),14,16-nonaen-19-one], in data set [2] (setting [6]), the inhibition at 10 µM was 62%.

In the case of `COc1ccc2c(c1)c1ccnc3c4ccnc(OC)c4c(=O)n2c13` [MW01-E14, 5,17-dimethoxy-1,11,16-triazapentacyclo[10.7.1.0^2,^7.0^8,^20.0^13,^18]icosa-2(7),3,5,8(20),9,11,13(18),14,16-nonaen-19-one], the inhibition at 10 µM in data set [2] (setting [6]) was found to be 43%. Moreover, the “activity” value in data set [3] is “inactive”.

Consider `O=c1c2cnccc2c2nccc3c4cc(O)ccc4n1c32` [MW01-E18, 5-hydroxy-1,11,16-triazapentacyclo[10.7.1.0^2,^7.0^8,^20.0^13,^18]icosa-2(7),3,5,8(20),9,11,13(18),14,16-nonaen-19-one], for which, in data set [2] (setting [6]), the inhibition at 10 µM is 94%.

`COc1ccc2cc3c(N)nn(C(=O)c4cccc(N(C)C)c4)c3nc2c1` [MW05, (3-Amino-7-methoxypyrazolo[3,4-b]quinolin-1-yl)-[3-(dimethylamino)phenyl]methanone]: the “degradation in cell culture conditions” value in data set [1] is listed as “minimal degradation”. In addition, the inhibition at 1 µM in data set [2] (setting [4]) came out at 30%. The inhibition at 10 µM in data set [2] (setting [5]) came out at 61%. Also, the IC50 in data set [2] (in vitro kinase panel, sub-2000 nM criterion) was at least 2000 nM. Besides, the “phosphorylation of p65 at serine 536 after DNA damage” value in data set [3] was “significantly reduced”.

Turning to `COc1ccc2nc3c(cc2c1)c(N)nn3C(=O)c1cccc(N(C)C)c1` [MW05-E2, 1-[3-(dimethylamino)benzoyl]-6-methoxy-1H-pyrazolo[3,4-b]quinolin-3-amine], the inhibition at 10 µM in data set [2] (setting [6]) came out at 16%. Also, the “activity” value in data set [3] is “inactive; also recorded: lacking activity”.
